Reference: PubChem BioAssay (NCI)
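Dose response: 5 concentrations. Exposure: 48 h. Format: 96-well plates. Endpoint: linear interpolation; highest concentration if not reached. TGI: total growth inhibition.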

Experiments:
Test in all cases: NCI-60 cell line screen, 48 h
[1] = test system: IGROV1 ovarian
[2] = test system: RXF 393 renal
[3] = test system: HOP-92 NSCLC
[4] = test system: NCI-H460 lung
[5] = test system: CCRF-CEM leukemia
[6] = test system: MCF7 breast
[7] = test system: K-562 leukemia
[8] = test system: NCI-H522 lung
[9] = test system: HS 578T breast
[10] = test system: OVCAR-3 ovarian
[11] = test system: UO-31 renal
[12] = test system: MDA-N
[13] = test system: ACHN renal
[14] = test system: OVCAR-5 ovarian
[15] = test system: UACC-62 melanoma
[16] = test system: HCC-2998 colon
[17] = test system: M14 melanoma
[18] = test system: SK-MEL-28 melanoma
[19] = test system: A549 NSCLC
[20] = test system: MDA-MB-231 breast
[21] = test system: 786-0 renal
[22] = test system: SN12C renal
[23] = test system: DU-145 prostate
[24] = test system: OVCAR-4 ovarian
[25] = test system: SW-620 colon
[26] = test system: OVCAR-8 ovarian
[27] = test system: LOX IMVI melanoma
[28] = test system: MALME-3M melanoma
[29] = test system: SK-MEL-2 melanoma
[30] = test system: BT-549 breast
[31] = test system: SNB-19 CNS
[32] = test system: UACC-257 melanoma
[33] = test system: HL-60(TB) leukemia
[34] = test system: SR leukemia
[35] = test system: RPMI-8226 leukemia
[36] = test system: T-47D breast
[37] = test system: NCI-H23 lung
[38] = test system: HCT-15 colon
[39] = test system: SF-268 CNS
[40] = test system: TK-10 renal
[41] = test system: COLO 205 colon
[42] = test system: SNB-75 CNS
[43] = test system: SF-295 CNS
[44] = test system: KM12 colon
[45] = test system: U251 CNS
[46] = test system: MDA-MB-435
[47] = test system: NCI-H226 lung
[48] = test system: HT29 colon
[49] = test system: SK-MEL-5 melanoma
[50] = test system: MOLT-4 leukemia
[51] = test system: PC-3 prostate
[52] = test system: HCT-116 colon
[53] = test system: EKVX NSCLC
[54] = test system: A498 renal
[55] = test system: SK-OV-3 ovarian
[56] = test system: HOP-62 NSCLC
[57] = test system: SF-539 CNS
[58] = test system: CAKI-1 renal

SMILES: CN1CCN(C(=S)N(C(=O)c2cccs2)C2CCCCC2)CC1
- TGI [1]: > 100 µM
- TGI [2]: > 100 µM
- TGI [3]: > 100 µM
- TGI [4]: > 100 µM
- TGI [5]: > 10 µM
- TGI [6]: > 100 µM
- TGI [7]: > 100 µM
- TGI [8]: > 100 µM
- TGI [9]: > 100 µM
- TGI [10]: > 100 µM
- TGI [11]: > 100 µM
- TGI [12]: > 100 µM
- TGI [13]: > 100 µM
- TGI [14]: > 100 µM
- TGI [15]: > 100 µM
- TGI [16]: > 100 µM
- TGI [17]: > 100 µM
- TGI [18]: > 100 µM
- TGI [19]: > 100 µM
- TGI [20]: > 100 µM
- TGI [21]: > 100 µM
- TGI [22]: > 100 µM
- TGI [23]: > 100 µM
- TGI [24]: > 100 µM
- TGI [25]: > 100 µM
- TGI [26]: > 100 µM
- TGI [27]: > 100 µM
- TGI [28]: > 100 µM
- TGI [29]: > 100 µM
- TGI [30]: > 100 µM
- TGI [31]: > 100 µM
- TGI [32]: > 100 µM
- TGI [33]: 54.2 µM
- TGI [34]: > 100 µM
- TGI [35]: > 100 µM
- TGI [36]: > 100 µM
- TGI [37]: > 100 µM
- TGI [38]: > 100 µM
- TGI [39]: > 100 µM
- TGI [40]: > 100 µM
- TGI [41]: > 100 µM
- TGI [42]: > 100 µM
- TGI [43]: > 10 µM
- TGI [44]: > 100 µM
- TGI [45]: > 100 µM
- TGI [46]: > 100 µM
- TGI [47]: > 100 µM
- TGI [48]: > 100 µM
- TGI [49]: > 100 µM
- TGI [50]: > 10 µM

SMILES: Clc1ccc(-c2cc(-c3cc(-c4ccc(Cl)cc4)n[nH]3)[nH]n2)cc1
- TGI [1]: > 100 µM
- TGI [2]: > 100 µM
- TGI [7]: > 100 µM
- TGI [8]: > 100 µM
- TGI [10]: > 100 µM
- TGI [11]: > 100 µM
- TGI [12]: > 100 µM
- TGI [13]: > 100 µM
- TGI [14]: > 100 µM
- TGI [17]: > 100 µM
- TGI [23]: > 100 µM
- TGI [28]: > 100 µM
- TGI [29]: > 100 µM
- TGI [30]: > 100 µM
- TGI [32]: > 100 µM
- TGI [51]: > 100 µM
- TGI [36]: > 100 µM
- TGI [37]: > 100 µM
- TGI [52]: > 100 µM
- TGI [41]: > 100 µM
- TGI [53]: > 100 µM
- TGI [46]: > 100 µM
- TGI [54]: > 100 µM
- TGI [47]: > 100 µM
- TGI [49]: > 100 µM
- TGI [50]: > 100 µM
- TGI [55]: > 100 µM

SMILES: C=C1C(O)C23CCC4C(C(=O)O)(C(=O)O)CC(OC5OC(CO)C(O)C(OC(=O)CCc6ccccc6)C5NC(=O)CC(C)C)CC4(C)C2CCC1(O)C3 (centres undefined)
- TGI [56]: > 100 µM
- TGI [1]: > 100 µM
- TGI [2]: > 100 µM
- TGI [3]: > 100 µM
- TGI [4]: > 100 µM
- TGI [5]: > 100 µM
- TGI [7]: > 100 µM
- TGI [8]: > 100 µM
- TGI [9]: > 100 µM
- TGI [10]: > 100 µM
- TGI [11]: > 100 µM
- TGI [12]: > 100 µM
- TGI [13]: > 100 µM
- TGI [14]: > 100 µM
- TGI [15]: > 100 µM
- TGI [16]: > 100 µM
- TGI [17]: > 100 µM
- TGI [18]: > 100 µM
- TGI [19]: > 100 µM
- TGI [20]: > 100 µM
- TGI [21]: > 100 µM
- TGI [22]: > 100 µM
- TGI [23]: > 100 µM
- TGI [24]: > 100 µM
- TGI [25]: > 100 µM
- TGI [26]: > 100 µM
- TGI [27]: > 100 µM
- TGI [57]: > 100 µM
- TGI [28]: > 100 µM
- TGI [29]: > 100 µM
- TGI [30]: > 100 µM
- TGI [31]: > 100 µM
- TGI [32]: > 100 µM
- TGI [33]: > 100 µM
- TGI [34]: > 100 µM
- TGI [51]: > 100 µM
- TGI [35]: > 100 µM
- TGI [36]: > 100 µM
- TGI [37]: > 100 µM
- TGI [52]: > 100 µM
- TGI [38]: > 100 µM
- TGI [39]: > 100 µM
- TGI [40]: > 100 µM
- TGI [41]: > 100 µM
- TGI [42]: > 100 µM
- TGI [43]: > 100 µM
- TGI [53]: > 100 µM
- TGI [44]: > 100 µM
- TGI [45]: > 100 µM
- TGI [46]: > 100 µM
- TGI [54]: > 100 µM
- TGI [47]: > 100 µM
- TGI [48]: > 100 µM
- TGI [58]: > 100 µM
- TGI [49]: > 100 µM
- TGI [50]: > 100 µM
- TGI [55]: > 100 µM
